Laboratory results: patent publication US8796336B2, “Methoxypolyethylene glycol chelate and uses thereof” (Eastern Virginia Medical School, priority 2006, dated 2014)

What was measured:
[1] = test system: intraocular pressure (IOP); assay: Topical application for IOP measurements on rat surgical glaucoma (ocular hypertensive) model; assay type: in vivo, male SpragueDawley rats
Procedure: Ocular hypertension was induced in 9 male SpragueDawley rats, weighing between 400 to 500 grams. Under general anesthesia with acepromazine maleate (12 mg/Kg) and ketamine (80 mg/Kg), IP, and topical proparacaine (0.5%), dissection of the conjunctiva was made with fine cuts. To reduce the stimulus for revascularization or neovascularization, dissection of the right eye was limited to the area immediately surrounding the vortex veins. Three of four vortex veins were exposed and ligated using 9.0 nylon sutures. Criterion for inclusion into the study was an intraocular pressure (IOP) increase of 5 mm Hg or more when compared to […] baseline IOP. Within 6 weeks, the IOP of all the operated eyes increased at least 5 mm Hg compared to baseline. National Institutes of Health Guidelines and Association for Research in Vision and Ophthalmology statement for the Use and Care of Animals were followed in this study.
Prior to initiation of treatment, baseline IOP was obtained in glaucoma rat models. IOP was measured via a specially modified Goldmann applanation tonometer (HAAG-STREIT, Bern, Switzerland) under sedation. Measurements are averages of two consecutive readings and were made at the same time of day and by the same observers.
Rats were treated topically with 20 μl of MP compounds (0.3-100 mM; n=3-6) on the operated eyes. […]

[2] = test system: retinal ganglion cells (RGC); assay: NMDA retinal damage model, scotopic electroretinogram A and B waves; assay type: in vivo, rats; settings: for A wave, % Baseline, Intravitreal / B wave, % Baseline, Intravitreal: intravitreal 2 mM co-administered with 2 ul 10 mM NMDA; for A wave, % Baseline, Topical / B wave, % Baseline, Topical: topical 100 mM, 20 μl 3 times per day, 5 days prior and 3 days post-NMDA
Procedure: Changes in electroretinogram (ERG) A and B waves have been used as indicators of RGC damage. To examine RGC neuroprotection, 2 ul intravitreal injections of 10 mM NMDA, sufficient to change ERG A and B-waves within 2 weeks, were challenged with co-administered intravitreal (2 mM) or topical 100 mM MPDTE, MPSEDE and amifostine in normal rats unilaterally. For topical administration, rats were pretreated for 5 days prior and 3 days post-NMDA administration with the agents at a frequency of 3 times per day with 20 μl agent. Scotopic ERG changes were measured in normal rats. Rats were dark adapted for at least 4 hrs. Eyes were dilated with atropine after which proparacaine and methylcellulose gel were applied topically. Custom made AgCl electrodes (64-1317, Warner Instruments, Hamden, Conn.) were placed on the apex of the cornea. Stimuli consisted of 10-microsec flashes of unattenuated white light generated by Ganzfield bowl photo stimulator (Grass Instruments, PS22, Quincy, Mass.). Data from each eye was recorded separately with a driver amplifier (Grass Instruments, Model 7DAF Polygraph, Quincy, Mass.). Data was acquired digitally via DASYLab (Bedford, N.H.). The contralateral normal eye served as an age matched negative control, e.g. response in a normal, undamaged eye. Differences in amplitude of the A-wave and B-waves between the treated eye and the contralateral eye and between treatment groups were calculated.

H9C2 cells = assay: Doxorubicin chemotoxicity on H9C2 cells, intracellular calcium by fluo-3 AM; assay type: cell-based, rat; settings: 10 min exposure to 50 μM doxorubicin, cells without MPDTE pretreatment
Procedure: H9C2 cells, which are used as models for rat striated muscle, were cultured using techniques described previously (Lattanzio, F A Jr., Tiangco, D., Osgood, C., Beebe, S., Kerry, J. and Hargrave B Y. Cocaine increases intracellular calcium and reactive oxygen species, depolarizes mitochondria, and activates genes associated with heart failure and remodeling. Cardiovascular Toxiology (20050 5: 377-389). Fluorescent calcium indicator and ROS indicator were used to determine if the reported increase in intracellular calcium and ROS activity occurred and whether these changes were reduced in the presence of 2 mM MPSEDE or MPDTE. Cells were measured using a Zeiss 510 fluorescent confocal microscope as described in Lattanzio et al, 2005.
H9C2 cells, a rat myocyte model, were cultured in MEM until confluent using techniques described in Lattanzio et al, 2005. The cells were treated with 5 μM fluo-3 AM, a fluorescent calcium indicator, for 30 min at 37 C, washed and then exposed to 50 μM doxorubicin (a supermaximal toxic dose), in the presence or absence of 30 min pretreatment with 2 mM MPDTE. Doxorubicin increases intracellular calcium in cardiac cells by disrupting calcium homeostasis through the production of free radical damage and subsequent membrane damage. […] Protection may have occurred due to a combination of free radical scavenging and calcium chelation.

Compound: methoxypolyethlene glycol thioester of ethylenediaminetetraacetic acid methyl triester [MPSEDE]
- IOP reduction ([1]; single topical dose of 10-100 mM, FIG. 5-7): significantly reduced IOP
- reduction of NMDA damage ([2]; both intravitreal and topical administration (Table 1)): significantly reduced NMDA damage
- reduction of NMDA damage ([2]; co-administration with NMDA, at the dose tested): trend to reduce NMDA damage, but this was not significant
- A wave, % Baseline, Intravitreal [2]: 76.2 % Baseline
- B wave, % Baseline, Intravitreal [2]: 69.6 % Baseline
- A wave, % Baseline, Topical [2]: 95.9 % Baseline
- B wave, % Baseline, Topical [2]: 93.7 % Baseline

Compound: polyethylene glycol monomethyl ether [MP]
- IOP reduction of the components ([1]; MP or DTE administered alone or together, not as great as with MPDTE, FIG. 10): reduction in IOP

Compound: COc1cccc2c1C(=O)c1c(O)c3c(c(O)c1C2=O)C[C@@](O)(C(=O)CO)C[C@@H]3O[C@H]1C[C@H](N)[C@H](O)[C@H](C)O1 [doxorubicin]
- increase of intracellular calcium (H9C2 cells): 59.4%

Compound: CN[C@H](CC(=O)O)C(=O)O [NMDA, N-methyl-D-aspartate]
- A wave, % Baseline, Intravitreal [2]: 51.2 % Baseline
- B wave, % Baseline, Intravitreal [2]: 68.4 % Baseline
- A wave, % Baseline, Topical [2]: 51.2 % Baseline
- B wave, % Baseline, Topical [2]: 68.4 % Baseline

Compound: NCCCNCCSP(=O)(O)O [amifostine, S-2-[3-aminopropylamino]ethylphosphorothioate]
- A wave, % Baseline, Intravitreal [2]: 94.2 % Baseline
- B wave, % Baseline, Intravitreal [2]: 83.3 % Baseline
- A wave, % Baseline, Topical [2]: 69.4 % Baseline
- B wave, % Baseline, Topical [2]: 99.3 % Baseline
